# In patent publication US20110152094A1, “Herbicidal compositions comprising flufenacet” (Bayer CropScience AG, priority 2009, published 2011):
# How the values were obtained:
# Format in all cases: in vivo
# [1] = system: MATCH = Matricaria chamomilla; test: Greenhouse trial, PE application with different irrigation variations (test method 6); conditions: g of AS/ha: (A) 120, (B) 1200, (A)+(B) 120 + 1200
# Experimental: (§1) In the standard design of the test, seeds of various broad-leaved weed and weed grass biotypes (origins) were sown in a 8-13 cm diameter pot filled with natural soil of a standard field soil (loamy silt; non-sterile) and covered with a covering soil layer of about 1 cm. The pots were then cultivated in a greenhouse (12-16 h of light, temperature day 20-22° C., night 15-18° C.) until the time of application. The pots were treated on a laboratory track sprayer with spray liquors comprising the compositions according to the invention, mixtures of the prior art or components used individually. Application of the active compounds or active compound combinations formulated as WG, WP, EC or otherwise was carried out at the appropriate growth stages of the plants. The application rate for the spray application was 100-600 l of water/ha. After the treatment, the plants were returned to the greenhouses.
# (§2) About 3 weeks after the application, the soil action or/and foliar action was assessed visually according to a scale of 0-100% in comparison to an untreated comparative group: 0%=no noticeable effect compared to the untreated comparative group; 100%=full effect compared to the untreated comparative group.
# (§3) (notes: the term “seeds” also includes vegetative propagation forms such as, for example, rhizome pieces; abbreviations used: h light=hours of illumination, g of AS/ha=gram of active substance per hectare, l/ha=liter per hectare, S=sensitive, R=resistant) • 1. Pre-emergence action against weeds: seeds of various broad-leaved weed and weed grass biotypes (origins) were sown in a 8-13 cm diameter pot filled with natural soil of a standard field soil (loamy silt; non-sterile) and covered with a covering soil layer of about 1 cm. The pots were then cultivated in a greenhouse (12-16 h of light, temperature day 20-22° C., night 15-18° C.) until the time of application. The pots were treated at the BBCH stage 00-10 of the seeds/plants on a laboratory track sprayer with spray liquors comprising the compositions according to the invention, mixtures or components used individually, as WG, WP, EC or other formulations. The application rate for the spray application was 100-600 l of water/ha. After the treatment, the plants were returned to the greenhouses and, when required, treated with fertilizer and watered. • 2. Post-emergence action against weeds: seeds of various broad-leaved weed and weed grass biotypes (origins) were sown in a 8-13 cm diameter pot filled with natural soil of a standard field soil (loamy silt; non-sterile) and covered with a covering soil layer of about 1 cm. The pots were then cultivated in a greenhouse (12-16 h of light, temperature day 20-22° C., night 15-18° C.) until the time of application. The pots were treated at various BBCH stages between 11-25 of the seeds/plants, i.e. generally between two to three weeks after the start of the cultivation, on a laboratory track sprayer with spray liquors comprising the compositions according to the invention, mixtures or components used individually, as WG, WP, EC or other formulations. The application rate for the spray application was 100-600 l of water/ha. After the treatment, the plants were returned to the greenhouses and, when required, treated with fertilizer and watered. • 3. Selective pre-emergence action: seeds of various crop species (origins) were sown in a 8-13 cm diameter pot filled with natural soil of a standard field soil (loamy silt; non-sterile) and covered with a covering soil layer of about 1 cm. The pots were then cultivated in a greenhouse (12-16 h of light, temperature day 20-22° C., night 15-18° C.) until the time of application. The pots were treated at the BBCH stage 00-10 of the seeds/plants on a laboratory track sprayer with spray liquors comprising the compositions according to the invention, mixtures or components used individually, as WG, WP, EC or other formulations. The application rate for the spray application was 100-600 l of water/ha. […]
# [2] = system: AVEFA = Avena fatua; test: as above; conditions: g of AS/ha: (A) 120, (B) 1200, (A)+(B) 120 + 1200
# Experimental: as §1, §2, §3
# [3] = system: STEME = Stellaria media; test: Greenhouse trial, PE application at different sowing depths (test method 9); conditions: g of AS/ha: (A) 120, (B) 1200, (A)+(B) 120 + 1200
# Experimental: as §1, §2, §3
# [4] = system: LOLPE = Lolium perenne; test: as above; conditions: g of AS/ha: (A) 120, (B) 1200, (A)+(B) 120 + 1200
# Experimental: as §1, §2, §3
# [5] = system: ALOMY resistant (Alopecurus myosuroides); test: Greenhouse trial, PE application on resistant biotypes (test method 8); conditions: resistant biotype, g of AS/ha: (A) 90, (B) 1200, (A)+(B) 90 + 1200
# Experimental: as §1, §2, §3
# [6] = system: ALOMY sensitive (Alopecurus myosuroides); test: as above; conditions: sensitive biotype, g of AS/ha: (A) 90, (B) 1200, (A)+(B) 90 + 1200
# Experimental: as §1, §2, §3
# [7] = system: MATCH resistant (Matricaria chamomilla); test: as above; conditions: resistant biotype, g of AS/ha: (A) 90, (B) 1200, (A)+(B) 90 + 1200, (C) 10
# Experimental: as §1, §2, §3
# [8] = system: MATCH sensitive (Matricaria chamomilla); test: as above; conditions: sensitive biotype, g of AS/ha: (A) 90, (B) 1200, (A)+(B) 90 + 1200, (C) 10
# Experimental: as §1, §2, §3
# [9] = system: STEME = Stellaria media; test: Greenhouse trial, post-emergence (PO) action against weeds (test method 2); conditions: PO application; g of AS/ha: (A) 120, (B) 1200, (A)+(B) 120 + 1200; about 3 weeks after application
# Experimental: as §1, §2, §3
# [10] = system: LOLPE = Lolium perenne; test: as above; conditions: PO application; g of AS/ha: (A) 120, (B) 1200, (A)+(B) 120 + 1200; about 3 weeks after application
# Experimental: as §1, §2, §3
# [11] = system: VIOAR = Viola arvensis; test: as above; conditions: PO application; g of AS/ha: (A) 120, (B) 1200, (A)+(B) 120 + 1200; about 3 weeks after application
# Experimental: as §1, §2, §3
# [12] = system: MATCH = Matricaria chamomilla; test: Greenhouse trial, pre-emergence (PE) action against weeds (test method 1); conditions: PE application; g of AS/ha: (A) 90, (B) 1200, (A)+(B) 90 + 1200
# Experimental: as §1, §2
# (§4) (notes: the term “seeds” also includes vegetative propagation forms such as, for example, rhizome pieces; abbreviations used: h light=hours of illumination, g of AS/ha=gram of active substance per hectare, l/ha=liter per hectare, S=sensitive, R=resistant) • 1. Pre-emergence action against weeds: seeds of various broad-leaved weed and weed grass biotypes (origins) were sown in a 8-13 cm diameter pot filled with natural soil of a standard field soil (loamy silt; non-sterile) and covered with a covering soil layer of about 1 cm. The pots were then cultivated in a greenhouse (12-16 h of light, temperature day 20-22° C., night 15-18° C.) until the time of application. The pots were treated at the BBCH stage 00-10 of the seeds/plants on a laboratory track sprayer with spray liquors comprising the compositions according to the invention, mixtures or components used individually, as WG, WP, EC or other formulations. The application rate for the spray application was 100-600 l of water/ha. After the treatment, the plants were returned to the greenhouses and, when required, treated with fertilizer and watered. • 2. Post-emergence action against weeds: seeds of various broad-leaved weed and weed grass biotypes (origins) were sown in a 8-13 cm diameter pot filled with natural soil of a standard field soil (loamy silt; non-sterile) and covered with a covering soil layer of about 1 cm. The pots were then cultivated in a greenhouse (12-16 h of light, temperature day 20-22° C., night 15-18° C.) until the time of application. […]
# [13] = system: AVEFA = Avena fatua; test: as above; conditions: PE application; g of AS/ha: (A) 90, (B) 1200, (A)+(B) 90 + 1200
# Experimental: as §1, §2, §4
# [14] = system: STEME = Stellaria media; test: Greenhouse trial, activity with different soil types (test method 7); conditions: g of AS/ha: (A) 120, (B) 1200, (A)+(B) 120 + 1200
# Experimental: as §1, §2, §3
# [15] = system: MATCH = Matricaria chamomilla; test: Greenhouse trial, pre-sowing application 7 days prior to sowing (test method 5); conditions: g of AS/ha: (A) 90, (B) 1200, (A)+(B) 90 + 1200
# Experimental: as §1, §2
# (§5) (notes: the term “seeds” also includes vegetative propagation forms such as, for example, rhizome pieces; abbreviations used: h light=hours of illumination, g of AS/ha=gram of active substance per hectare, l/ha=liter per hectare, S=sensitive, R=resistant) • 1. Pre-emergence action against weeds: seeds of various broad-leaved weed and weed grass biotypes (origins) were sown in a 8-13 cm diameter pot filled with natural soil of a standard field soil (loamy silt; non-sterile) and covered with a covering soil layer of about 1 cm. The pots were then cultivated in a greenhouse (12-16 h of light, temperature day 20-22° C., night 15-18° C.) until the time of application. The pots were treated at the BBCH stage 00-10 of the seeds/plants on a laboratory track sprayer with spray liquors comprising the compositions according to the invention, mixtures or components used individually, as WG, WP, EC or other formulations. The application rate for the spray application was 100-600 l of water/ha. After the treatment, the plants were returned to the greenhouses and, when required, treated with fertilizer and watered. • 2. Post-emergence action against weeds: seeds of various broad-leaved weed and weed grass biotypes (origins) were sown in a 8-13 cm diameter pot filled with natural soil of a standard field soil (loamy silt; non-sterile) and covered with a covering soil layer of about 1 cm. The pots were then cultivated in a greenhouse (12-16 h of light, temperature day 20-22° C., night 15-18° C.) until the time of application. The pots were treated at various BBCH stages between 11-25 of the seeds/plants, i.e. generally between two to three weeks after the start of the cultivation, on a laboratory track sprayer with spray liquors comprising the compositions according to the invention, mixtures or components used individually, as WG, WP, EC or other formulations. The application rate for the spray application was 100-600 l of water/ha. After the treatment, the plants were returned to the greenhouses and, when required, treated with fertilizer and watered. • 3. […]
# [16] = system: AVEFA = Avena fatua; test: as above; conditions: g of AS/ha: (A) 90, (B) 1200, (A)+(B) 90 + 1200
# Experimental: as §1, §2, §5
compound,measurement,setting,value
"CC(C)N(C(=O)COc1nnc(C(F)(F)F)s1)c1ccc(F)cc1 [(A) flufenacet, N-(4-fluorophenyl)-N-(1-methylethyl)-2-[[5-(trifluoromethyl)-1,3,4-thiadiazol-2-yl]oxy]acetamide]","activity MATCH (visual assessment, scale 0-100% vs untreated)",[1]; irrigation from above,97%
same,"activity MATCH (visual assessment, scale 0-100% vs untreated)",[1]; irrigation from below,35%
same,"activity AVEFA (visual assessment, scale 0-100% vs untreated)",[2]; irrigation from above,85%
same,"activity AVEFA (visual assessment, scale 0-100% vs untreated)",[2]; irrigation from below,50%
same,"activity STEME, sowing depth 5 mm (visual assessment, scale 0-100% vs untreated)",[3]; sowing depth 5 mm,0%
same,"activity STEME, sowing depth 20 mm (visual assessment, scale 0-100% vs untreated)",[3]; sowing depth 20 mm,20%
same,"activity LOLPE, sowing depth 5 mm (visual assessment, scale 0-100% vs untreated)",[4]; sowing depth 5 mm,80%
same,"activity LOLPE, sowing depth 20 mm (visual assessment, scale 0-100% vs untreated)",[4]; sowing depth 20 mm,90%
same,"activity ALOMY resistant (visual assessment, scale 0-100% vs untreated)",[5],68%
same,"activity ALOMY sensitive (visual assessment, scale 0-100% vs untreated)",[6],80%
same,"activity MATCH resistant (visual assessment, scale 0-100% vs untreated)",[7],30%
same,"activity MATCH sensitive (visual assessment, scale 0-100% vs untreated)",[8],30%
same,"activity STEME (visual assessment, scale 0-100% vs untreated)",[9],30%
same,"activity LOLPE (visual assessment, scale 0-100% vs untreated)",[10],65%
same,"activity VIOAR (visual assessment, scale 0-100% vs untreated)",[11],40%
same,"activity MATCH (visual assessment, scale 0-100% vs untreated)",[12],15%
same,"activity AVEFA (visual assessment, scale 0-100% vs untreated)",[13],85%
same,"activity STEME IU soil (visual assessment, scale 0-100% vs untreated)","[14]; IU soil (loamy silt, standard field soil)",89%
same,"activity STEME IU/EC73 soil (visual assessment, scale 0-100% vs untreated)","[14]; IU/EC73 soil (heavier soil, higher organic substance)",0%
same,"Difference of the soil types Δ^D, STEME",[14]; IU/EC73 soil versus IU soil,Δ^D −89%
same,"activity MATCH (visual assessment, scale 0-100% vs untreated)",[15],93%
same,"activity AVEFA (visual assessment, scale 0-100% vs untreated)",[16],70%
